Results from patent US10947227B2, “Tricyclic heterocyclic compounds as sting activators” (Incyte Corporation, priority 2018, dated 2021).

Tests used:
human STING = human STING (Homo sapiens, UniProt Q86WV6); details: cited from earlier work
established tumors = details: preclinical mouse models; cited from earlier work
[1] = test system: IRF3 activation in THP-1 Dual Cells; assay: IRF3 activation assay in THP-1 Dual Cells (QUANTI-Blue readout); assay type: cell-based; details: Homo sapiens, THP1-Dual, 24 h
Outline: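 THP-1 Dual cells (100,000/well) were incubated with serially diluted compounds 24 h at 37 °C. […]; EC50 from percent control activity versus log concentration.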

Chain of human STING (Q86WV6 whole entry H232R): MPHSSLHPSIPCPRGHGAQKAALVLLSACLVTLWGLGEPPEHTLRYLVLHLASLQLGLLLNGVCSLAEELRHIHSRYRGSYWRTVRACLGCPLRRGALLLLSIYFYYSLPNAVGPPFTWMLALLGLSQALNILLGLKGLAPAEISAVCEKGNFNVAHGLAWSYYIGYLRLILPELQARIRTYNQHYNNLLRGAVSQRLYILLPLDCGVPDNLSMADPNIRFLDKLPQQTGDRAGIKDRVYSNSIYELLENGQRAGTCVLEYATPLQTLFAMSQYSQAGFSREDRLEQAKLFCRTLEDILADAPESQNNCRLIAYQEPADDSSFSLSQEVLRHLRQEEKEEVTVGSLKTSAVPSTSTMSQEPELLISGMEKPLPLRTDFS

Row | EC50 ([1]; Table 1, 24 hours incubation) [µM] | EC50 ([1]; Table 2, 24 hours incubation) [µM] | SMILES | bind and activate human STING (human STING) | anti-tumor activity (established tumors)
1 |  |  | Cc1ccc2c(=O)c3cccc(CC(=O)O)c3oc2c1C [DMXAA, 5,6-dimethylxanthenone-4-acetic acid] | not human STING | excellent anti-tumor activity
2 | < 0.2 | 0.05 to 0.2 | CCn1nc(C)cc1C(=O)Nc1nc2cc(C(N)=O)cc(C)c2n1C/C=C/Cn1c2ccc(C(N)=O)cc2c2cnc(-c3cc(C)nn3CC)c(F)c21 [Example 23, (E)-5-(4-(5-carbamoyl-2-(1-ethyl-3-methyl-1H-pyrazole-5-carboxamido)-7-methyl-1H-benzo[d]imidazol-1-yl)but-2-en-1-yl)-3-(1-ethyl-3-methyl-1H-pyrazol-5-yl)-4-fluoro-5H-pyrido[4,3-b]indole-8-carboxamide] |  | 
3 | < 0.2 | < 0.05 | CCn1nc(C)cc1C(=O)Nc1nc2cc(C(N)=O)cc(OCCCN3CCOCC3)c2n1C/C=C/Cn1c2nc(-c3cc(C)nn3CC)ncc2c2cc(C(N)=O)cc(OCCCOC)c21 [Example 27, (E)-9-(4-(5-carbamoyl-2-(1-ethyl-3-methyl-1H-pyrazole-5-carboxamido)-7-(3-morpholinopropoxy)-1H-benzo[d]imidazol-1-yl)but-2-en-1-yl)-2-(1-ethyl-3-methyl-1H-pyrazol-5-yl)-8-(3-methoxypropoxy)-9H-pyrimido[4,5-b]indole-6-carboxamide] |  | 
4 |  | 0.2 to 0.5 | CCn1nc(C)cc1C(=O)Nc1nc2cc(C(N)=O)cc(OCCCNC(=O)[C@H](CC(=O)O)NC(=O)[C@H](CC(=O)O)NC(=O)[C@H](CCCNC(=N)N)NC(=O)[C@@H](N)CC(=O)O)c2n1C/C=C/Cn1c2nc(-c3cc(C)nn3CC)ncc2c2cc(C(N)=O)cc(OCCCOC)c21 [Example 37, (6S,9S,12S,15S)-15-amino-1-((5-carbamoyl-1-((E)-4-(6-carbamoyl-2-(1-ethyl-3-methyl-1H-pyrazol-5-yl)-8-(3-methoxypropoxy)-9H-pyrimido[4,5-b]indol-9-yl)but-2-en-1-yl)-2-(1-ethyl-3-methyl-1H-pyrazole-5-carboxamido)-1H-benzo[d]imidazol-7-yl)oxy)-6,9-bis(carboxymethyl)-12-(3-guanidinopropyl)-5,8,11,14-tetraoxo-4,7,10,13-tetraazaheptadecan-17-oic Acid] |  | 
5 |  | 0.05 to 0.2 | CCn1nc(C)cc1C(=O)Nc1nc2cc(C(N)=O)cc(OCCCOC)c2n1C/C=C/Cn1c2nc(-c3cc(C)nn3CC)ncc2c2cc(C(N)=O)cc(OCCOCCOCCC(=O)O)c21 [Example 53, (E)-3-(2-(2-(6-carbamoyl-9-(4-(5-carbamoyl-2-(1-ethyl-3-methyl-1H-pyrazole-5-carboxamido)-7-(3-methoxypropoxy)-1H-benzo[d]imidazol-1-yl)but-2-enyl)-2-(1-ethyl-3-methyl-1H-pyrazol-5-yl)-9H-pyrimido[4,5-b]indol-8-yloxy)ethoxy)ethoxy)propanoic Acid] |  | 
6 | < 0.2 | < 0.05 | CCn1nc(C)cc1C(=O)Nc1nc2cc(C(N)=O)cc(C)c2n1C/C=C/Cn1c2ccc(C(N)=O)cc2c2cc(F)c(-c3cc(C)nn3CC)nc21 [Example 24, (E)-9-(4-(5-carbamoyl-2-(1-ethyl-3-methyl-1H-pyrazole-5-carboxamido)-7-methyl-1H-benzo[d]imidazol-1-yl)but-2-en-1-yl)-2-(1-ethyl-3-methyl-1H-pyrazol-5-yl)-3-fluoro-9H-pyrido[2,3-b]indole-6-carboxamide] |  | 
7 |  | 0.05 to 0.2 | CCn1nc(C)cc1C(=O)Nc1nc2cc(C(N)=O)cc(OC(C)C)c2n1C/C=C/Cn1c2nc(-c3cc(C)nn3CC)ncc2c2cc(C(N)=O)cc(OCCCOC)c21 [Example 30, (E)-9-(4-(5-carbamoyl-2-(1-ethyl-3-methyl-1H-pyrazole-5-carboxamido)-7-isopropoxy-1H-benzo[d]imidazol-1-yl)but-2-en-1-yl)-2-(1-ethyl-3-methyl-1H-pyrazol-5-yl)-8-(3-methoxypropoxy)-9H-pyrimido[4,5-b]indole-6-carboxamide] |  | 
8 | < 1 | 0.2 to 0.5 | CCn1nc(C)cc1C(=O)Nc1nc2cc(C(N)=O)cc(C)c2n1C/C=C/Cn1c2ccc(C(N)=O)cc2c2cnc(-c3ccnn3CC)nc21 [Example 7, (E)-9-(4-(5-carbamoyl-2-(1-ethyl-3-methyl-1H-pyrazole-5-carboxamido)-7-methyl-1H-benzo[d]imidazol-1-yl)but-2-enyl)-2-(1-ethyl-1H-pyrazol-5-yl)-9H-pyrimido[4,5-b]indole-6-carboxamide] |  | 
9 |  | 0.05 to 0.2 | CCn1nc(C)cc1C(=O)Nc1nc2cc(C(N)=O)cc(OC)c2n1C/C=C/Cn1c2nc(-c3cc(C)nn3CC)ncc2c2cc(C(N)=O)cc(OCCC3CCN(CCCC(=O)O)CC3)c21 [Example 55, (E)-4-(4-(2-(6-carbamoyl-9-(4-(5-carbamoyl-2-(1-ethyl-3-methyl-1H-pyrazole-5-carboxamido)-7-methoxy-1H-benzo[d]imidazol-1-yl)but-2-enyl)-2-(1-ethyl-3-methyl-1H-pyrazol-5-yl)-9H-pyrimido[4,5-b]indol-8-yloxy)ethyl)piperidin-1-yl)butanoic Acid] |  | 
10 | < 1 | 0.2 to 0.5 | CCn1nc(C)cc1C(=O)Nc1nc2cc(C(N)=O)cc(C)c2n1C/C=C/Cn1c2ccc(C(N)=O)cc2c2cc(C#N)c(-c3cc(C)nn3CC)nc21 [Example 25, (E)-9-(4-(5-carbamoyl-2-(1-ethyl-3-methyl-1H-pyrazole-5-carboxamido)-7-methyl-1H-benzo[d]imidazol-1-yl)but-2-en-1-yl)-3-cyano-2-(1-ethyl-3-methyl-1H-pyrazol-5-yl)-9H-pyrido[2,3-b]indole-6-carboxamide] |  | 
11 | < 0.2 | < 0.05 | CCn1nc(C)cc1C(=O)Nc1nc2cc(C(N)=O)cc(OCCCOC(=O)c3cc(C)nn3CC)c2n1C/C=C/Cn1c2nc(-c3cc(C)nn3CC)ncc2c2cc(C(N)=O)cc(OC)c21 [Example 15, (E)-3-((5-carbamoyl-1-(4-(6-carbamoyl-2-(1-ethyl-3-methyl-1H-pyrazol-5-yl)-8-methoxy-9H-pyrimido[4,5-b]indol-9-yl)but-2-en-1-yl)-2-(1-ethyl-3-methyl-1H-pyrazole-5-carboxamido)-1H-benzo[d]imidazol-7-yl)oxy)propyl 1-ethyl-3-methyl-1H-pyrazole-5-carboxylate] |  | 
12 | < 1 | 0.2 to 0.5 | CCn1nc(C)cc1C(=O)Nc1nc2cc(C(N)=O)cc(C)c2n1C/C=C/Cn1c2ccccc2c2cnc(-c3cc(C)nn3CC)nc21 [Example 2, (E)-1-(4-(2-(1-ethyl-3-methyl-1H-pyrazol-5-yl)-9H-pyrimido[4,5-b]indol-9-yl)but-2-enyl)-2-(1-ethyl-3-methyl-1H-pyrazole-5-carboxamido)-7-methyl-1H-benzo[d]imidazole-5-carboxamide] |  | 
13 | < 0.2 | < 0.05 | CCn1nc(C)cc1C(=O)Nc1nc2cc(C(N)=O)cc(OCCCO)c2n1C/C=C/Cn1c2nc(-c3cc(C)nn3CC)ncc2c2cc(C(N)=O)cc(OCCCOC)c21 [Example 22, (E)-9-(4-(5-carbamoyl-2-(1-ethyl-3-methyl-1H-pyrazole-5-carboxamido)-7-(3-hydroxypropoxy)-1H-benzo[d]imidazol-1-yl)but-2-en-1-yl)-2-(1-ethyl-3-methyl-1H-pyrazol-5-yl)-8-(3-methoxypropoxy)-9H-pyrimido[4,5-b]indole-6-carboxamide] |  | 
